Data reported in ChEMBL document CHEMBL5512632, “Unlocking the potential of 1,4-naphthoquinones: A comprehensive review of their anticancer properties” (Eur J Med Chem, 2024).

What was measured:
[1] = tested on: HeLa; experiment: Cytotoxicity against human HeLa cells incubated for 48 hrs by MTT assay; assay type: functional, cell-based
[2] = tested on: HepG2; experiment: Cytotoxicity against human HepG2 cells incubated for 48 hrs by MTT assay; assay type: functional, cell-based; settings: HepG2, 48 h
[3] = tested on: HCT-116; experiment: Cytotoxicity against human HCT-116 cells assessed as inhibition of cell growth incubated for 72 hrs by resazurin assay; assay type: functional, cell-based; settings: HCT-116, 72 h
[4] = tested on: Huh-7; experiment: Cytotoxicity against human Huh-7 cells assessed as inhibition of cell growth incubated for 72 hrs by resazurin assay; assay type: functional, cell-based; settings: Huh-7, 72 h
[5] = tested on: U-87 MG; experiment: Cytotoxicity against human U87 cells assessed as inhibition of cell growth incubated for 72 hrs by resazurin assay; assay type: functional, cell-based, U-87MG ATCC
[6] = tested on: MDA-MB-231; experiment: Cytotoxicity against human MDA-MB-231 cells assessed as inhibition of cell growth incubated for 72 hrs by resazurin assay; assay type: functional, cell-based; settings: MDA-MB-231, 72 h
[7] = tested on: MCF7; experiment: Cytotoxicity against human MCF7 cells assessed as inhibition of cell growth incubated for 72 hrs by resazurin assay; assay type: functional, cell-based; settings: MCF7, 72 h
[8] = tested on: HeLa; experiment: Cytotoxicity against human HeLa cells incubated for 48 hrs by MTT microplate reader assay; assay type: functional, cell-based
[9] = tested on: A549; experiment: Antiproliferative activity against human A549 cells assessed as inhibition of cell growth incubated for 72 hrs by Sulforhodamine B assay; assay type: functional, cell-based; settings: A549, 72 h
[10] = Antiproliferative activity against human HGF cells assessed as inhibition of cell growth incubated for 72 hrs by Sulforhodamine B assay; assay type: toxicity, cell-based
[11] = tested on: MCF7; experiment: Antiproliferative activity against human MCF7 cells assessed as inhibition of cell growth incubated for 72 hrs by Sulforhodamine B assay; assay type: functional, cell-based; settings: MCF7, 72 h
[12] = tested on: B16-F10; experiment: Antiproliferative activity against mouse B16-F10 cells assessed as inhibition of cell growth incubated for 72 hrs by Sulforhodamine B assay; assay type: functional, cell-based; settings: B16-F10, 72 h
[13] = tested on: SK-BR-3; experiment: Antiproliferative activity against human SK-BR-3 cells assessed as inhibition of cell growth incubated for 72 hrs by Sulforhodamine B assay; assay type: functional, cell-based; settings: SK-BR-3, 72 h
[14] = tested on: MDA-MB-231; experiment: Antiproliferative activity against human MDA-MB-231 cells assessed as inhibition of cell growth incubated for 72 hrs by Sulforhodamine B assay; assay type: functional, cell-based; settings: MDA-MB-231, 72 h
[15] = tested on: C6; experiment: Antiproliferative activity against rat C6 cells assessed as inhibition of cell growth incubated for 72 hrs by Sulforhodamine B assay; assay type: functional, cell-based; settings: C6, 72 h
[16] = tested on: MCF7; experiment: Growth inhibition of human MCF7 cells incubated for 48 hrs by Sulforhodamine B reagent based spectrophotometric assay; assay type: functional
[17] = tested on: MDA-MB-231; experiment: Growth inhibition of human MDA-MB-231 cells incubated for 48 hrs by Sulforhodamine B reagent based spectrophotometric assay; assay type: functional
[18] = tested on: HepG2; experiment: Antiproliferative activity against human HepG2 cells assessed as inhibition of cell growth incubated for 48 hrs by MTT reagent based spectrophotometric analysis; assay type: functional; settings: HepG2, 48 h
[19] = tested on: MCF7; experiment: Antiproliferative activity against human MCF7 cells assessed as inhibition of cell growth incubated for 48 hrs by MTT reagent based spectrophotometric analysis; assay type: functional; settings: MCF7, 48 h
[20] = tested on: MCF7; experiment: Antiproliferative activity against human MCF7 cells assessed as inhibition of cell growth incubated for 72 hrs by WST-1 assay; assay type: functional, cell-based; settings: MCF7, 72 h
[21] = tested on: A549; experiment: Antiproliferative activity against human A549 cells assessed as inhibition of cell growth incubated for 72 hrs by WST-1 assay; assay type: functional, cell-based; settings: A549, 72 h
[22] = tested on: MDA-MB-231; experiment: Antiproliferative activity against human MDA-MB-231 cells assessed as inhibition of cell growth incubated for 72 hrs by WST-1 assay; assay type: functional, cell-based; settings: MDA-MB-231, 72 h
[23] = tested on: COLO-829; experiment: Antiproliferative activity against human COLO-829 cells assessed as inhibition of cell growth incubated for 72 hrs by WST-1 assay; assay type: functional, cell-based; settings: COLO-829, 72 h
[24] = tested on: Caco-2; experiment: Antiproliferative activity against human Caco-2 cells assessed as inhibition of cell growth incubated for 72 hrs by WST-1 assay; assay type: functional, cell-based; settings: Caco-2, 72 h
[25] = tested on: T47D; experiment: Antiproliferative activity against human T47D cells assessed as inhibition of cell growth incubated for 72 hrs by WST-1 assay; assay type: functional, cell-based
[26] = tested on: B16; experiment: Antiproliferative activity against mouse B16 cells assessed as inhibition of cell growth incubated for 48 hrs by MTS assay; assay type: functional, cell-based; settings: B16, 48 h
[27] = tested on: MCF7; experiment: Antiproliferative activity against human MCF7 cells assessed as inhibition of cell growth incubated for 48 hrs by MTS assay; assay type: functional, cell-based; settings: MCF7, 48 h
[28] = tested on: HeLa; experiment: Antiproliferative activity against human HeLa cells assessed as inhibition of cell growth incubated for 48 hrs by MTS assay; assay type: functional, cell-based
[29] = tested on: NCI-H1299; experiment: Antiproliferative activity against human NCI-H1299 cells assessed as inhibition of cell growth incubated for 48 hrs by MTS assay; assay type: functional, cell-based; settings: NCI-H1299, 48 h
[30] = tested on: HCT-116; experiment: Antiproliferative activity against human HCT-116 cells assessed as inhibition of cell growth incubated for 48 hrs by MTS assay; assay type: functional, cell-based; settings: HCT-116, 48 h
[31] = tested on: HT-29; experiment: Antiproliferative activity against human HT-29 cells assessed as inhibition of cell growth incubated for 24 hrs by BrdU incorporation assay; assay type: functional, cell-based; settings: HT-29, 24 h
[32] = tested on: HCT-116; experiment: Antiproliferative activity against human HCT-116 cells assessed as inhibition of cell growth incubated for 24 hrs by BrdU incorporation assay; assay type: functional, cell-based; settings: HCT-116, 24 h
[33] = tested on: SH-SY5Y; experiment: Antiproliferative activity against human SH-SY5Y cells assessed as inhibition of cell growth incubated for 48 hrs by MTT assay; assay type: functional, cell-based
[34] = tested on: SAOS-2; experiment: Antiproliferative activity against human SAOS-2 cells assessed as inhibition of cell growth incubated for 48 hrs by MTT assay; assay type: functional, cell-based; settings: SAOS-2, 48 h
[35] = tested on: U2OS; experiment: Antiproliferative activity against human U2OS cells assessed as inhibition of cell growth incubated for 48 hrs by MTT assay; assay type: functional, cell-based
[36] = tested on: HeLa; experiment: Antiproliferative activity against human HeLa cells assessed as inhibition of cell growth incubated for 48 hrs by MTT assay; assay type: functional, cell-based
[37] = tested on: HCT-116; experiment: Antiproliferative activity against human HCT-116 cells assessed as inhibition of cell growth by MTT assay; assay type: functional, cell-based
[38] = tested on: SK-OV-3; experiment: Antiproliferative activity against human SK-OV-3 cells assessed as inhibition of cell growth incubated for 48 hrs by MTT reagent based spectrophotometric analysis; assay type: functional; settings: SK-OV-3, 48 h
[39] = tested on: A2780; experiment: Antiproliferative activity against human A2780 cells assessed as inhibition of cell growth incubated for 48 hrs by MTT reagent based spectrophotometric analysis; assay type: functional; settings: A2780, 48 h
[40] = tested on: OVCAR-3; experiment: Antiproliferative activity against human OVCAR-3 cells assessed as inhibition of cell growth incubated for 48 hrs by MTT reagent based spectrophotometric analysis; assay type: functional; settings: OVCAR-3, 48 h
[41] = tested on: K562; experiment: Antiproliferative activity against human K562 cells assessed as inhibition of cell growth incubated for 72 hrs by MTT assay; assay type: functional, cell-based; settings: K562, 72 h

## C[C@@H](CC[C@H]1O[C@H]2C[C@H]3[C@@H]4CC=C5C[C@@H](O)CC[C@]5(C)[C@H]4CC[C@]3(C)[C@H]2[C@@H]1C)COC1=C(Cl)C(=O)c2ccccc2C1=O
[1]
  IC50: 14.1 µM
[2]
  IC50: 1.24 µM

## CCOC(=O)C(NC1=C(Cl)C(=O)c2ccccc2C1=O)C(C)=O (stereo unspecified)
[3]
  IC50: 13.9 µM
[4]
  IC50: 18.3 µM
[5]
  IC50: 18.9 µM
[6]
  IC50: 15.9 µM
[7]
  IC50: 24.5 µM

## COc1ccc(C(C2=C(O)C(=O)c3ccccc3C2=O)c2c(C)[nH]n(-c3ccccc3)c2=O)c(O)c1 (stereo unspecified)
[8]
  IC50: 2.9 µM

## CC(=O)OC[C@H]1O[C@H](n2cc(COC3=CC(=O)c4ccccc4C3=O)nn2)[C@H](OC(C)=O)[C@H](OC(C)=O)[C@H]1OC(C)=O
[9]
  IC50: 8.5 µM
[10]
  IC50 at 72 h: 17.7 µM
[11]
  IC50: 3.33 µM
[12]
  IC50: 5.3 µM
[13]
  IC50: 0.78 µM
[14]
  IC50: 14 µM
[15]
  IC50: 14.7 µM

## O=C1C(Cl)=C(N2CCN(Cc3ccc4c(c3)OCO4)CC2)C(=O)c2ccccc21
[16]
  GI50: 5.8 µM
[17]
  GI50: 5 µM

## O=C1C(Cl)=C(NNc2nnc3n2N=C(c2ccc(Cl)cc2)CS3)C(=O)c2ccccc21
[18]
  IC50: 0.07 µM
[19]
  IC50: 8.49 µM

## C=C(C)[C@@H]1CC[C@]2(COC(=O)c3cn(CCCOC4=C(Cl)C(=O)c5ccccc5C4=O)nn3)CC[C@]3(C)[C@H](CC[C@@H]4[C@@]5(C)CC[C@H](O)C(C)(C)[C@@H]5CC[C@]43C)[C@@H]12
[20]
  IC50: 11.7 µM
[21]
  IC50: 1.86 µM
[22]
  IC50: 10 µM
[23]
  IC50: 12.5 µM
[24]
  IC50: 12.2 µM
[25]
  IC50: 2.41 µM

## CN(C)C(=S)SCC1=C(CSC(=S)N(C)C)C(=O)c2ccccc2C1=O
[26]
  IC50: 0.104 µM
[27]
  IC50: 0.069 µM
[28]
  IC50: 0.122 µM
[29]
  IC50: 0.109 µM
[30]
  IC50: 0.088 µM

## O=C1C(Cl)=C(Oc2ccc(-c3oc4cc(O)cc(O)c4c(=O)c3O)cc2O)C(=O)c2ccccc21
[31]
  IC50: 23.2 µM
[32]
  IC50: 10.3 µM

## CC(=O)N[C@@H](CSC1=CC(=O)c2ccccc2C1=O)C(=O)O
[33]
  IC50: 0.87 µM
[34]
  IC50: 1.67 µM
[35]
  IC50: 1.81 µM
[36]
  IC50: 0.54 µM

## O=C1C=C(Sc2ccc([N+](=O)[O-])cc2)C(=O)c2ccccc21
[37]
  IC50: 5.32 µM

## O=C1C=C(N(Cc2ccccn2)Cc2ccccn2)C(=O)c2ccccc21
[38]
  IC50: 2.8 µM
[39]
  IC50: 5.6 µM
[40]
  IC50: 6.8 µM

## O=C1C=C(Nc2ccc(S(=O)(=O)c3ccc(NC(=S)N4CCCCC4)cc3)cc2)C(=O)c2ccccc21
[41]
  IC50: 5.8 µM
